Data reported in PMC12030627, “Radioiodinated Bicyclic RGD Peptide Derivatives for Enhanced Tumor Accumulation” (Pharmaceuticals, 2025).
Like-named read-outs stand apart in the source and are kept apart here. Starred links: 1 amine or outer side, 2 acyl side, 3 side chain; linkers in the order of their positions; H or OH if unused. Positions of bridges follow the written chain, without caps; N, C: chain ends. Non-standard residues stand in square brackets, D forms with d. Residues, ends and D or L forms follow the SMILES beside them. *: point of attachment. TBMB = c1c(C[*:1])cc(C[*:3])cc1C[*:2]; Palmitoyl = CCCCCCCCCCCCCCCC(=O)*; Benzoyl(3-I) = O=C(c1cccc(I)c1)*; 4Abz = Nc1ccc(C(=O)O)cc1

Experiment: Biodistribution in U-87 MG tumor-bearing mice
Type: in vivo, BALB/c nu-nu mice
Details: male, BALB/c nu-nu, mouse, iv, 37 kBq, total radioactivity, U-87 MG-bearing mice, mean ± SD, n = 3; for tissue uptake at 1 h / tissue uptake dose at 1 h: 1 h after i.v. administration; for tissue uptake at 2 h / tissue uptake dose at 2 h: 2 h after i.v. administration; for tissue uptake at 6 h / tissue uptake dose at 6 h: 6 h after i.v. administration; for tissue uptake at 5 min / tissue uptake dose at 5 min: 5 min after i.v. administration; for tissue uptake at 0.5 h / tissue uptake dose at 0.5 h: 30 min after i.v. administration
Description: Animal experiments were performed in compliance with institutional animal care regulations, with the study protocol approved by the Experimental Animal Committee of Osaka Medical and Pharmaceutical University (Approval Numbers: 21–76, 22–76, and 23–76). Four-week-old male BALB/c nu-nu mice (Japan SLC, Shizuoka, Japan) were housed under a 12 h light/12 h dark cycle with free access to food and water. Tumor-bearing mice were established by suspending U-87 MG cells (2 × 10^6 cells/mouse) in PBS(–) and subcutaneously injecting 100 μL of the suspension into the right hind leg. For co-implantation models, A549 cells (2 × 10^6 cells/mouse) were suspended in PBS(–) and inoculated (100 μL) into the left hind leg of the same mice already inoculated with U-87 MG cells. Mice with tumor size approximately 10 mm in diameter, 4–5 weeks after inoculation, were used for biodistribution studies. Animals in which either tumor was not viable were excluded from the experiment.
U-87 MG-bearing mice (n = 42, 8–9 weeks old; 22–27 g) were randomly assigned into groups and administered [^125I]bcRGDpal or [^125I]bcRGDiba via intravenous injection (37 kBq in 100 μL of PBS containing 0.1% Tween 80 (PBS-T80)). At 5 min, 30 min, 1 h, 2 h, 6 h, 12 h, or 24 h post-injection, the mice were euthanized (n = 3 per time point). The heart, kidneys, liver, brain, pancreas, spleen, lung, small intestine, large intestine, muscle, skin, stomach, bone, and tumors were excised. Each organ’s weight and radioactivity were measured by a NaI well-type scintillation counter, and the % ID/g was calculated. To investigate the correlation between integrin expression and radioactivity accumulation, biodistribution at 2 h after administration of [^125I]bcRGDpal or [^125I]bcRGDiba was assessed in A549 and U-87 MG co-implantation mice (n = 5) using the same procedure. Additionally, co-implantation mice were injected with [^125I]bcRGDdimer (37 kBq/100 μL PBS-T80) and euthanized at 30 min, 2 h, and 4 h post-injection (n = 4 per time point), and % ID/g values were calculated as described above. The minimum sample size needed for the biodistribution study in U-87 MG-bearing mice was calculated using G Power software version 3.1.9.7. The calculation was based on a two-tailed test, with an effect size of 3.9, a significance level (α) of 0.05, and a statistical power (1 − β) of 0.8. […] The minimum required sample size for the biodistribution study in A549 and U-87 MG co-implantation mice was also calculated to be four animals per group (effect size = 2.5, α = 0.05, 1 − β = 0.8). To guarantee objective results, the experiment was carried out in a blinded manner. Specifically, drug administration and radioactivity measurements were conducted by different investigators to eliminate potential bias.

[1] = liver, read-out: Radioactivity in liver
[2] = lung, read-out: Radioactivity in lung
[3] = muscle, read-out: Radioactivity in muscle
[4] = pancreas, read-out: Radioactivity in pancreas
[5] = small intestine, read-out: Radioactivity in small intestine
[6] = spleen, read-out: Radioactivity in spleen
[7] = stomach, read-out: Radioactivity in stomach
[8] = thyroid, read-out: Radioactivity in thyroid

## CCCCCCCCCCCCCCCC(=O)N[C@@H](CCCCNC(=O)c1cccc(I)c1)C(=O)N1CCC[C@H]1C(=O)N1CCC[C@H]1C(=O)N1CCC[C@H]1C(=O)N[C@@H](CO)C(=O)NCC(=O)Nc1ccc(C(=O)N[C@@H](CO)C(=O)NCC(=O)N[C@H]2CSCc3cc4cc(c3)CSC[C@@H](NC(=O)[C@H](CCC(N)=O)NC(=O)[C@@H]3CCCN3C(=O)[C@H](Cc3c[nH]cn3)NC2=O)C(=O)N[C@@H](CCCNC(=N)N)C(=O)NCC(=O)N[C@@H](CC(=O)O)C(=O)N[C@@H](C(N)=O)CSC4)cc1 [[^125I]bcRGDpal] (Palmitoyl-K(Benzoyl(3-I))PPPSG[4Abz]SGCHPQ[dC]RGD[dC]-NH2; linker 10-14-18 via TBMB)
[1]
  tissue uptake at 1 h: 15.8 ± 0.9 %ID/g
  tissue uptake at 2 h: 12.3 ± 0.3 %ID/g
  tissue uptake at 6 h: 6 ± 0.2 %ID/g
liver, 12 h after i.v. administration, read-out: Radioactivity in liver
  tissue uptake at 12 h: 1.9 ± 0.2 %ID/g
liver, 24 h after i.v. administration, read-out: Radioactivity in liver
  tissue uptake at 24 h: 0.5 %ID/g
[2]
  tissue uptake at 5 min: 11.8 ± 1.3 %ID/g
  tissue uptake at 0.5 h: 11.2 ± 1 %ID/g
  tissue uptake at 1 h: 9.6 ± 1.3 %ID/g
  tissue uptake at 2 h: 7.8 ± 1 %ID/g
  tissue uptake at 6 h: 4.4 ± 0.5 %ID/g
lung, 12 h after i.v. administration, read-out: Radioactivity in lung
  tissue uptake at 12 h: 2.2 ± 0.3 %ID/g
lung, 24 h after i.v. administration, read-out: Radioactivity in lung
  tissue uptake at 24 h: 0.6 ± 0.1 %ID/g
[3]
  tissue uptake at 5 min: 1.4 ± 0.3 %ID/g
  tissue uptake at 0.5 h: 1.6 ± 0.2 %ID/g
  tissue uptake at 1 h: 1.4 ± 0.2 %ID/g
  tissue uptake at 2 h: 1.1 ± 0.1 %ID/g
  tissue uptake at 6 h: 0.6 ± 0.1 %ID/g
muscle, 12 h after i.v. administration, read-out: Radioactivity in muscle
  tissue uptake at 12 h: 0.3 %ID/g
muscle, 24 h after i.v. administration, read-out: Radioactivity in muscle
  tissue uptake at 24 h: 0.1 %ID/g
[4]
  tissue uptake at 5 min: 2.8 ± 0.2 %ID/g
  tissue uptake at 0.5 h: 2.5 ± 0.3 %ID/g
  tissue uptake at 1 h: 1.9 ± 0.1 %ID/g
  tissue uptake at 2 h: 1.6 ± 0.1 %ID/g
  tissue uptake at 6 h: 1.2 ± 0.3 %ID/g
pancreas, 12 h after i.v. administration, read-out: Radioactivity in pancreas
  tissue uptake at 12 h: 0.4 %ID/g
pancreas, 24 h after i.v. administration, read-out: Radioactivity in pancreas
  tissue uptake at 24 h: 0.1 %ID/g
[5]
  tissue uptake at 5 min: 2.3 ± 0.2 %ID/g
  tissue uptake at 0.5 h: 4.5 ± 0.6 %ID/g
  tissue uptake at 1 h: 7 ± 0.3 %ID/g
  tissue uptake at 2 h: 9.3 ± 0.9 %ID/g
  tissue uptake at 6 h: 4 ± 0.2 %ID/g
Small intestine, 12 h after i.v. administration, read-out: Radioactivity in small intestine
  tissue uptake at 12 h: 1.9 ± 0.5 %ID/g
Small intestine, 24 h after i.v. administration, read-out: Radioactivity in small intestine
  tissue uptake at 24 h: 0.3 %ID/g
[6]
  tissue uptake at 5 min: 5.1 ± 0.4 %ID/g
  tissue uptake at 0.5 h: 5.9 ± 0.8 %ID/g
  tissue uptake at 1 h: 4.6 ± 0.6 %ID/g
  tissue uptake at 2 h: 3.7 ± 0.1 %ID/g
  tissue uptake at 6 h: 1.9 ± 0.2 %ID/g
spleen, 12 h after i.v. administration, read-out: Radioactivity in spleen
  tissue uptake at 12 h: 0.8 ± 0.1 %ID/g
spleen, 24 h after i.v. administration, read-out: Radioactivity in spleen
  tissue uptake at 24 h: 0.2 %ID/g
[7]
  tissue uptake dose at 5 min: 0.5 ± 0.1 %ID
  tissue uptake dose at 0.5 h: 0.6 ± 0.1 %ID
  tissue uptake dose at 1 h: 0.7 ± 0.1 %ID
  tissue uptake dose at 2 h: 0.8 ± 0.1 %ID
  tissue uptake dose at 6 h: 0.4 %ID
stomach, 12 h after i.v. administration
  tissue uptake dose at 12 h: 0.4 ± 0.3 %ID
stomach, 24 h after i.v. administration
  tissue uptake dose at 24 h: 0.1 ± 0.1 %ID
[8]
  tissue uptake dose at 5 min: 0.1 %ID
  tissue uptake dose at 0.5 h: 0.1 ± 0.1 %ID
  tissue uptake dose at 1 h: 0.1 ± 0.1 %ID
  tissue uptake dose at 2 h: 0.1 ± 0.1 %ID
  tissue uptake dose at 6 h: 0.1 %ID
